{"source": "patent US11040054B2", "about": "“Estrogen sensing through GPER1 regulates normal and malignant liver growth” (The Brigham and Women's Hospital, Inc., priority 2016, dated 2021)", "key": {"[1]": {"tested_on": "PI3K/Akt, MAPK/Erk and mTORC1 pathways", "experiment": "Western blot analysis of whole larvae (p-Akt, p-Erk, p-S6)", "format": "in vivo, zebrafish", "text": "Pooled larvae (n=30-40) and cultured cells were homogenized in radioimmunoprecipitation assay (RIPA) lysis buffer and processed as previously described.^15 Lysates were separated by gel electrophoresis and subjected to Western blot."}, "zebrafish larvae liver": {"tested_on": "zebrafish larvae liver", "experiment": "Larval liver size analysis (ISH for fabp10a, fabp10a:GFP imaging) at 120 hpf", "format": "in vivo", "conditions": "for liver size at 120 hpf: compound alone, exposure 110-115 hpf; for liver size in gper1−/− mutants or gper1 morphants: gper1 loss of function larvae; for effect on E2-induced enhancement in liver size: co-exposure with E2 (or knockdown plus E2)", "protocol": "Zebrafish larvae were exposed to chemicals, dissolved in 0.1% (v/v) dimethylsulfoxide (DMSO), at specified doses for 5 hrs. from 110-115 hours post fertilization (hpf) and analyzed at 120 hpf (unless otherwise specified). Adults were treated for 5-7 hrs. per exposure with frequency as described.\nLarvae were fixed with paraformaldehyde and in situ hybridization (ISH) performed according to standard protocols.^16 gper1 probe was generously gifted by David Volz.^17\nISH images were obtained by brightfield microscopy, and fabp10a:GFP reporter larvae were imaged using fluorescence microscopy. 3D imaging of fabp10a:GFP fish was performed with a Zeiss LightsheetZ.1. […] were fixed and paraffin embedded. Tissues were sectioned (5 μm) and stained with hematoxylin & eosin (H&E). De-identified formalin-fixed paraffin-embedded human liver sections were obtained from pathology files of the University of Utah (IRB 00091019) and commercially available tissue arrays (OD-CT-DgLiv01-003, US Biomax). Immunohistochemistry (IHC) (using antibodies listed in Table 4) and terminal deoxynucleotidyl transferase dUTP nick-end labeling (TUNEL) staining were performed using established protocols.^16 GPER1 staining was scored by a pathologist based on the mean amount of cytoplasmic reactivity in hepatic cells: 0+, minimal/no staining; 1+, faint/mild staining; 2+, moderate staining; 3+, strong staining."}, "[2]": {"tested_on": "liver tumors in DMBA-exposed WT zebrafish", "experiment": "DMBA chemical carcinogenesis followed by chemical prevention trial", "description": "gper1^−/− or wild-type fry were exposed to 5 ppm dimethylbenzanthrazene (DMBA) for 24 hrs. at 3, 4, and 5 weeks.^19 Fish recovered for 1 week prior to longitudinal chemical exposures commencing at 6 weeks (3 times/week). Fish were monitored daily for survival and tumor formation until 33 weeks post DMBA treatment. Fish were either analyzed immediately after death or at 33 weeks post DMBA exposure, when all remaining fish were sacrificed. Histologic analysis was performed by a board-certified pathologist with expertise in zebrafish liver histology in a blinded fashion."}, "HepG2 cells": {"tested_on": "HepG2 cells", "experiment": "HepG2 signaling immunoblot (p-Akt, p-S6)", "conditions": "G15 500 nM co-exposure with E2 10 nM", "description": "HepG2 cells (Sigma-Aldrich, USA) were cultured in phenol-red free, Minimum Essential Medium Eagle (MEM) supplemented with 10% heat-inactivated fetal bovine serum (Hyclone, Thermo Scientific, USA), L-glutamine (2 mM), 1% non-essential amino acids and penicillin-streptomycin (10,000 U/mL), at 37° C. and 5% CO2."}, "[3]": {"tested_on": "hepatocytes in larval liver", "conditions": "for PCNA+ cells in the liver: compound alone, larvae", "description": "ISH images were obtained by brightfield microscopy, and fabp10a:GFP reporter larvae were imaged using fluorescence microscopy. 3D imaging of fabp10a:GFP fish was performed with a Zeiss LightsheetZ.1. […] Tissues were sectioned (5 μm) and stained with hematoxylin & eosin (H&E)."}, "fabp10a:GFP+ hepatocytes": {"tested_on": "fabp10a:GFP+ hepatocytes", "conditions": "zebrafish, in vivo", "description": "To determine the cellular mechanism by which E2 enlarges liver size, cell cycle analysis was performed on propidium iodide-stained fabp10a:GFP^+ hepatocytes by flow cytometry (FIG. 3A)."}, "GPER1": {"biological_target": "GPER1 (Homo sapiens, UniProt Q99527)", "sequence (Q99527 whole entry)": "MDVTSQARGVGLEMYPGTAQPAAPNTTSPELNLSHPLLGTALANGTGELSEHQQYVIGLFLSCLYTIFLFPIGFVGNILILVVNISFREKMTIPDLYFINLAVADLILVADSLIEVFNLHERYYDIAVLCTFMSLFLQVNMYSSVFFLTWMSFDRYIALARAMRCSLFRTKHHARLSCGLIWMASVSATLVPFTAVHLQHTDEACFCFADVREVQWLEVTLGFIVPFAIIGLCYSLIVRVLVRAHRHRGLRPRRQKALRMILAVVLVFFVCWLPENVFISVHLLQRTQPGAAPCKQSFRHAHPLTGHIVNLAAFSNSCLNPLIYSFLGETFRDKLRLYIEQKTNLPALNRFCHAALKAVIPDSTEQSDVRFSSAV", "conditions": "cited from earlier work"}, "[4]": {"tested_on": "regenerating larval liver", "experiment": "Liver regeneration after metronidazole (Mtz) hepatocyte ablation in Tg(fabp10a:CFP-NTR) larvae"}, "hepatic lesions": {"tested_on": "hepatic lesions", "conditions": "in vivo; cited from earlier work"}}, "data": [{"compound": "740Y-P", "values": [{"measurement": "p-Akt in gper1−/− mutants", "setting": "[1]; gper1−/− whole larvae", "value": "restored to WT levels"}, {"measurement": "larvae with increased liver size", "setting": "zebrafish larvae liver; WT larvae, 120 hpf, larvae with phenotype out of total observed", "value": 77, "unit": "%"}, {"measurement": "liver size at 120 hpf", "setting": "zebrafish larvae liver; WT larvae", "value": "increased liver size"}, {"measurement": "liver size in gper1−/− mutants or gper1 morphants", "setting": "zebrafish larvae liver; 120 hpf", "value": "rescued liver growth"}, {"measurement": "gper1 morphants with small liver phenotype rescued", "setting": "zebrafish larvae liver; gper1 morphants, 120 hpf", "value": 61, "unit": "%"}]}, {"compound": "Brc1cc2c(cc1[C@@H]1Nc3ccccc3[C@@H]3C=CC[C@@H]31)OCO2", "note": "(racemic) [G-15, (3aS,4R,9bR)-4-(6-Bromo-1,3-benzodioxol-5-yl)-3a,4,5,9b-3H-cyclopenta[c]quinoline]", "values": [{"measurement": "impact of blockade on E2-induced tumor size, sex-stratified", "setting": "[2]; E2+G-15, male vs female fish", "value": "predominantly observed in male, less in female fish"}, {"measurement": "liver tumor size (mean)", "setting": "[2]; E2+G-15 co-exposure, up until 9 mpf", "value": 0.4, "unit": "mm"}, {"measurement": "effect on E2-associated increases in p-Akt and p-S6", "setting": "HepG2 cells", "value": "blocked"}, {"measurement": "PCNA+ cells in the liver", "setting": "[3]", "value": "decreased"}, {"measurement": "effect on E2-induced increase in PCNA+ hepatocytes", "setting": "[3]; zebrafish, in vivo", "value": "inhibited"}, {"measurement": "effect on E2-induced enhancement in liver size", "setting": "zebrafish larvae liver; WT larvae, 120 hpf", "value": "specifically inhibited"}, {"measurement": "liver size at 120 hpf", "setting": "zebrafish larvae liver; WT larvae", "value": "reduced liver size"}, {"measurement": "hepatocytes in G2/M phase", "setting": "fabp10a:GFP+ hepatocytes", "value": 2.9, "unit": "%"}, {"measurement": "hepatocytes in S phase", "setting": "fabp10a:GFP+ hepatocytes", "value": 16.2, "unit": "%"}]}, {"compound": "CC/C(=C(\\c1ccc(O)cc1)c1ccc(OCCN(C)C)cc1)c1ccccc1", "note": "[4-OHT]", "values": [{"measurement": "action on GPER1", "setting": "GPER1", "value": "activated"}]}, {"compound": "CC(=O)c1ccc2c(c1)C1C=CCC1C(c1cc3c(cc1Br)OCO3)N2", "note": "(stereo not shown) [G-1]", "values": [{"measurement": "PCNA+ cells in the liver", "setting": "[3]", "value": "fractional increase"}, {"measurement": "phosphorylated S6 (p-S6)", "setting": "[1]; WT whole larvae", "value": "increased phosphorylated S6"}, {"measurement": "liver size at 120 hpf", "setting": "zebrafish larvae liver; WT larvae", "value": "increased liver size"}, {"measurement": "liver size in gper1−/− mutants or gper1 morphants", "setting": "zebrafish larvae liver; 120 hpf", "value": "did not respond"}, {"measurement": "liver size in hypomorphic mtor mutants", "setting": "zebrafish larvae liver; mtor mutants, 120 hpf", "value": "did not change"}, {"measurement": "liver size at 30 hpT after Mtz ablation", "setting": "[4]; WT larvae, chemical incubation for 5 hours, vs controls", "value": "significantly larger liver size"}, {"measurement": "liver regrowth after ablation in gper1−/− mutants", "setting": "[4]; gper1−/− larvae", "value": "not enhanced"}, {"measurement": "liver regrowth after ablation in mtor−/− mutants", "setting": "[4]; mtor−/− larvae", "value": "not impacted"}, {"measurement": "hepatocytes in G2/M phase", "setting": "fabp10a:GFP+ hepatocytes", "value": 9.4, "unit": "%"}, {"measurement": "hepatocytes in S phase", "setting": "fabp10a:GFP+ hepatocytes", "value": 21.8, "unit": "%"}, {"measurement": "total hepatocyte number by FACS", "setting": "fabp10a:GFP+ hepatocytes", "value": "increased"}]}, {"compound": "O=c1cc(N2CCOCC2)oc2c(-c3ccccc3)cccc12", "note": "[LY292002]", "values": [{"measurement": "larvae with decreased liver size", "setting": "zebrafish larvae liver; 120 hpf, larvae with phenotype out of total observed", "value": 72, "unit": "%"}, {"measurement": "larvae in which estrogenic effect on liver size was blocked", "setting": "zebrafish larvae liver; co-treatment of E2 and LY292002, WT larvae, 120 hpf", "value": 86, "unit": "%"}]}, {"compound": "NC1(c2ccc(-c3nc4ccn5c(=O)[nH]nc5c4cc3-c3ccccc3)cc2)CCC1", "note": "[MK-2206]", "values": [{"measurement": "effect on E2-induced enhancement in liver size", "setting": "zebrafish larvae liver; WT larvae, 120 hpf", "value": "diminished this effect"}, {"measurement": "liver size at 120 hpf", "setting": "zebrafish larvae liver; WT larvae", "value": "decreased liver size"}]}, {"compound": "CC(C)(C#N)c1cc(Cn2cncn2)cc(C(C)(C)C#N)c1", "note": "[anastrozole]", "values": [{"measurement": "liver size at 120 hpf", "setting": "zebrafish larvae liver; WT larvae", "value": "decrease in liver size"}]}, {"compound": "C[C@]12CC[C@@H]3c4ccc(O)cc4C[C@@H](CCCCCCCCC[S+]([O-])CCCC(F)(F)C(F)(F)F)[C@H]3[C@@H]1CC[C@@H]2O", "note": "(stereo partly shown) [fulvestrant]", "values": [{"measurement": "action on GPER1", "setting": "GPER1", "value": "activated"}]}, {"compound": "CC/C(=C(\\c1ccccc1)c1ccc(OCCN(C)C)cc1)c1ccccc1", "note": "[tamoxifen]", "values": [{"measurement": "action on GPER1", "setting": "GPER1", "value": "agonist"}, {"measurement": "size and number of hepatic lesions", "setting": "hepatic lesions", "value": "increased the size and number of hepatic lesions"}]}]}
